Measurements taken from ChEMBL document CHEMBL1201862, “PubChem BioAssay data set” (2004).
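Five concentrations, 48 hours, 96-well plates. GI50: concentration for 50% inhibition of growth.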 Activity calls are given as the source filed them. No stated cut-off is given here; in the data, active = GI50 up to about 1.1 µM and inactive = higher.

Tests used:
Experiment in all cases: inhibition of tumour cell growth, NCI panel, 48 h
CAKI-1 = tested on: CAKI-1
SNB-75 = tested on: SNB-75
UACC-62 = tested on: UACC-62
RPMI-8226 = tested on: RPMI-8226
HCT-116 = tested on: HCT-116
NCI/ADR-RES = tested on: NCI/ADR-RES
PC-3 = tested on: PC-3
SF-268 = tested on: SF-268
SK-MEL-28 = tested on: SK-MEL-28
A549 = tested on: A549
COLO 205 = tested on: COLO 205
ACHN = tested on: ACHN
K562 = tested on: K562
HOP-62 = tested on: HOP-62
SK-MEL-2 = tested on: SK-MEL-2
LOX IMVI = tested on: LOX IMVI
NCI-H522 = tested on: NCI-H522
IGROV-1 = tested on: IGROV-1
A498 = tested on: A498
786-0 = tested on: 786-0
MDA-N = tested on: MDA-N
OVCAR-3 = tested on: OVCAR-3
NCI-H226 = tested on: NCI-H226
BT-549 = tested on: BT-549
EKVX = tested on: EKVX
DU-145 = tested on: DU-145
SK-MEL-5 = tested on: SK-MEL-5
SF-539 = tested on: SF-539
OVCAR-5 = tested on: OVCAR-5
SW-620 = tested on: SW-620
SR = tested on: SR
CCRF-CEM = tested on: CCRF-CEM
OVCAR-4 = tested on: OVCAR-4
SN12C = tested on: SN12C
SF-295 = tested on: SF-295
MOLT-4 = tested on: MOLT-4
NCI-H23 = tested on: NCI-H23
RXF 393 = tested on: RXF 393
HT-29 = tested on: HT-29
HCC 2998 = tested on: HCC 2998
HCT-15 = tested on: HCT-15
SK-OV-3 = tested on: SK-OV-3
M14 = tested on: M14
OVCAR-8 = tested on: OVCAR-8
MCF7 = tested on: MCF7
HL-60 = tested on: HL-60
UO-31 = tested on: UO-31
T47D = tested on: T47D
Malme-3M = tested on: Malme-3M
UACC-257 = tested on: UACC-257
MDA-MB-435 = tested on: MDA-MB-435
HOP-92 = tested on: HOP-92
NCI-H460 = tested on: NCI-H460
SNB-19 = tested on: SNB-19
TK-10 = tested on: TK-10
MDA-MB-231 = tested on: MDA-MB-231
U-251 = tested on: U-251
KM12 = tested on: KM12

SMILES: O=C(/C=C/c1ccccc1)NNC(=O)c1c(Cl)c(Cl)c(Cl)c(Cl)c1-c1nc2ccccc2[nH]1
- GI50 (CAKI-1): 33.3 µM (inactive)
- GI50 (SNB-75): 18.2 µM (inactive)
- GI50 (UACC-62): 15.7 µM (inactive)
- GI50 (RPMI-8226): 26.9 µM (inactive)
- GI50 (HCT-116): 22.1 µM (inactive)
- GI50 (NCI/ADR-RES): 23.2 µM (inactive)
- GI50 (PC-3): 32.5 µM (inactive)
- GI50 (SF-268): 51.8 µM (inactive)
- GI50 (SK-MEL-28): 39.5 µM (inactive)
- GI50 (A549): 0.0966 µM (active)
- GI50 (COLO 205): 18 µM (inactive)
- GI50 (ACHN): 32.5 µM (inactive)
- GI50 (K562): 25.2 µM (inactive)
- GI50 (HOP-62): 0.0442 µM (active)
- GI50 (SK-MEL-2): 39.4 µM (inactive)
- GI50 (LOX IMVI): 27.1 µM (inactive)
- GI50 (NCI-H522): 24.6 µM (inactive)
- GI50 (IGROV-1): 6.49 µM (inactive)
- GI50 (A498): 29.6 µM (inactive)
- GI50 (786-0): 4.5 µM (inactive)
- GI50 (MDA-N): 11.3 µM (inactive)
- GI50 (OVCAR-3): 28.4 µM (inactive)
- GI50 (NCI-H226): 13.9 µM (inactive)
- GI50 (BT-549): 28.2 µM (inactive)
- GI50 (EKVX): 17.6 µM (inactive)
- GI50 (DU-145): 28.6 µM (inactive)
- GI50 (SK-MEL-5): 22 µM (inactive)
- GI50 (SF-539): 22.3 µM (inactive)
- GI50 (OVCAR-5): 25 µM (inactive)
- GI50 (SW-620): 33.3 µM (inactive)
- GI50 (SR): 12.9 µM (inactive)
- GI50 (CCRF-CEM): 27 µM (inactive)
- GI50 (OVCAR-4): 49.4 µM (inactive)
- GI50 (SN12C): 21.6 µM (inactive)
- GI50 (SF-295): 0.0472 µM (active)
- GI50 (MOLT-4): 32.4 µM (inactive)
- GI50 (NCI-H23): 23.2 µM (inactive)
- GI50 (RXF 393): 18.8 µM (inactive)
- GI50 (HT-29): 32.8 µM (inactive)
- GI50 (HCC 2998): 21.7 µM (inactive)
- GI50 (HCT-15): 24 µM
- GI50 (SK-OV-3): 45.3 nM (active)
- GI50 (M14): 25.8 µM (inactive)
- GI50 (OVCAR-8): 32 µM (inactive)
- GI50 (MCF7): 24.2 µM (inactive)
- GI50 (HL-60): 20.3 µM (inactive)
- GI50 (UO-31): 19.5 µM (inactive)
- GI50 (T47D): 18.4 µM (inactive)
- GI50 (Malme-3M): 26.5 µM (inactive)
- GI50 (UACC-257): 27.7 µM (inactive)
- GI50 (MDA-MB-435): 15.7 µM (inactive)
- GI50 (HOP-92): 18.7 µM (inactive)
- GI50 (NCI-H460): 23.7 µM (inactive)

SMILES: CC(NO)/C(=N/O)c1ccco1 (configuration not stated)
- GI50 (CAKI-1): > 10 µM (inactive)
- GI50 (RPMI-8226): > 10 µM (inactive)
- GI50 (HCT-116): > 10 µM (inactive)
- GI50 (SNB-19): > 10 µM (inactive)
- GI50 (NCI/ADR-RES): > 10 µM (inactive)
- GI50 (PC-3): > 10 µM (inactive)
- GI50 (SF-268): > 10 µM (inactive)
- GI50 (A549): > 10 µM (inactive)
- GI50 (TK-10): > 10 µM (inactive)
- GI50 (COLO 205): > 10 µM (inactive)
- GI50 (ACHN): > 10 µM (inactive)
- GI50 (K562): > 10 µM (inactive)
- GI50 (HOP-62): > 10 µM (inactive)
- GI50 (SK-MEL-2): > 10 µM (inactive)
- GI50 (NCI-H522): > 10 µM (inactive)
- GI50 (MDA-MB-231): > 10 µM (inactive)
- GI50 (786-0): > 10 µM (inactive)
- GI50 (MDA-N): > 10 µM (inactive)
- GI50 (OVCAR-3): > 10 µM (inactive)
- GI50 (NCI-H226): > 10 µM (inactive)
- GI50 (BT-549): > 10 µM (inactive)
- GI50 (EKVX): > 10 µM (inactive)
- GI50 (DU-145): > 10 µM (inactive)
- GI50 (OVCAR-5): > 10 µM (inactive)
- GI50 (SW-620): > 10 µM (inactive)
- GI50 (SR): > 10 µM (inactive)
- GI50 (CCRF-CEM): > 10 µM (inactive)
- GI50 (OVCAR-4): > 10 µM (inactive)
- GI50 (U-251): > 10 µM (inactive)
- GI50 (SN12C): > 10 µM (inactive)
- GI50 (SF-295): > 10 µM (inactive)
- GI50 (MOLT-4): > 10 µM (inactive)
- GI50 (NCI-H23): > 10 µM (inactive)
- GI50 (RXF 393): > 10 µM (inactive)
- GI50 (KM12): > 10 µM (inactive)
- GI50 (HT-29): > 10 µM (inactive)
- GI50 (HCC 2998): > 10 µM (inactive)
- GI50 (HCT-15): > 10 µM
- GI50 (M14): > 10 µM (inactive)
- GI50 (OVCAR-8): > 10 µM (inactive)
- GI50 (MCF7): > 10 µM (inactive)
- GI50 (HL-60): > 10 µM (inactive)
- GI50 (UO-31): > 10 µM (inactive)
- GI50 (T47D): > 10 µM (inactive)
- GI50 (Malme-3M): > 10 µM (inactive)
- GI50 (UACC-257): > 10 µM (inactive)
- GI50 (MDA-MB-435): > 10 µM (inactive)
- GI50 (HOP-92): > 10 µM (inactive)
- GI50 (NCI-H460): > 10 µM (inactive)
